Where a name gives a salt, the structure may show the parent alone.
Assays:
[1] = tested on: cycloheximide-induced amnesia model; test: Effects on CXM-induced amnesia (step-down retention test); type: in vivo, ddY-strain male mice; settings: for Escape learning latency (mean ± S.E.) / Step-down latency (mean ± S.E.): retention test 24 hours
Description: The test animals used were ddY-strain male mice (body weight 30-35 g). The experiment was carried out indoors at about 20° C., and the mice were allowed to take feed and water freely. 2. Effects on memorized behaviors
A device comprised of a floor grid surrounded on four sides by acrylic glass walls each having a lateral dimension of 21 cm and a wooden platform, 4×4×4 cm in size, fixed centrally to the floor grid was placed in a wooden semi-soundproof box having a size of 21×21×40 cm with a 15W electric bulb suspended from its ceiling.
The floor grid consisted of stainless steel rods, 3 mm in diameter, arranged at intervals of 8 mm. An intermittent electric shock (1 Hz, 0.5 sec., 60 V DC) was applied to the grid by an electric impulse apparatus and an isolator.
A mouse was placed in a predetermined direction on the platform. Immediately after the mouse stepped down onto the floor grid (when the mouse's four limbs left the platform), an electric shock was applied to the floor grid, and the intermittent application of the electric shock was continued until the mouse climbed up the platform to escape from the electric shock. The time which elapsed until the mouse stepped down from the platform (SDL, step down latency) and the time which elapsed until the mouse escaped to the platform from the electric shock (ELL, escape learning latency) were measured.
By the same procedure as in the training test, a mouse was placed on the platform, and its step down latency (SDL) was measured. The cut-off time was 300 seconds.
After the mouse stepped down, or the cut-off time elapsed, the mouse was placed on the floor grid at a corner of the device with its head directed in a direction opposite to the platform. An electric shock was applied to the mouse and its escape learning latency (ELL) was measured.
Mice divided into groups each consisting of not less than 20 mice were subjected to the training test, and immediately then subcutaneously injected with CXM (150 mg/kg). Twenty-four hours later, the mice was subjected to the retention test.
Immediately after administration of CXM or application of ECS, a 0.9% normal saline solution of each of the test compounds was intraperitoneally administered to the mice. Separately, a 5% gum arabic solution of CXM was administered to the mice in a control group.

[2] = tested on: sleeping induced by pentobarbital; test: Effect of prolonging the time of sleeping induced by pentobarbital; type: in vivo, ddY-strain male mice; settings: pentobarbital sodium 50 mg/kg s.c.
Description: (§1) In Tests 1 to 4 given below, ddY-strain male mice (body weight 20-25 g) were used, and the experiments were carried out in a semi-soundproof, constant-temperature room kept at a temperature of 23±1° C. and a humidity of 55±2%. The mice were allowed to take feed and water freely.
Test 3: Effect of prolonging the time of sleeping induced by pentobarbital
The effects of the test compounds on sleeping induced by pentobarbital were examined. The disappearance of righting reflex for 5 seconds or more was used as an index of sleeping. Mice were divided into 10-membered groups. Each of the test compounds was intraperitoneally administered to the mice in the doses indicated. Immediately then, pentobarbital sodium salt was subcutaneously injected into the mice in a dose of 50 mg/kg, and the sleeping time was compared with that of a group to which pentobarbital alone was injected (control).

[3] = tested on: locomotor activity of mice; test: Effects on locomotor activity, wheel cage method; type: in vivo, ddY-strain male mice
Description: as §1
Test 1: Effects on locomotor activity
The effects of the test compound on the locomotor activities of the mice were examined by using wheel cages (made by Kishimoto Ika). […] The mice were used in groups each consisting of 8 mice. The test compound was intraperitoneally administered to the mice in the doses indicated, and immediately then, the mice were put into the cages. The locomotor activities (the number of revolutions) were measured for 90 minutes at 15 minute intervals, and compared with that of the control group.

ddY-strain male mice = test: Irwin's observation method (behavior, nervous, autonomic nervous and toxic symptoms); type: in vivo; settings: 1,000 mg/kg or below, i.p.; vs control group
From the text: These mice were also observed for changes in behavior, nervous symptoms, autonomic nervous symptoms, and toxic symptoms in accordance with the Irwin's observation method.

[4] = 500 mg/kg i.p., CXM 150 mg/kg s.c.
[5] = 1000 mg/kg i.p., CXM 150 mg/kg s.c.

## CC(O)(CCO)CC(=O)NCCCC(=O)O (stereo not drawn) [MV-GABA-Ca salt, calcium 4-(3,5-dihydroxy-3-methylpentylamide) butyrate]
[1]; 500 mg/kg and 1,000 mg/kg, result in words
  shortening of SDL induced by CXM: significantly improved the shortening of SDL
[1]; [4]
  Escape learning latency (mean ± S.E.): 10.5 ± 0.6 s
  Step-down latency (mean ± S.E.): 120.5 ± 10.6 s
[1]; [5]
  Escape learning latency (mean ± S.E.): 7.5 ± 0.6 s
  Step-down latency (mean ± S.E.): 175.2 ± 16.1 s
[1]; 1000 mg/kg i.p., without CXM
  Escape learning latency (mean ± S.E.): 5.2 ± 0.6 s
  Step-down latency (mean ± S.E.): 260.5 ± 14.0 s
[1]; 1,000 mg/kg, result in words
  prolongation of ELL induced by CXM: significantly improved the prolongation of ELL
[1]; without CXM, vs control group, result in words
  memory activating action: did not show memory activating action
[2]; 1000 mg/kg i.p.
  Sleeping time: 62.7 ± 7.5 min
[2]; 2000 mg/kg i.p.
  Sleeping time: 77.2 ± 5.2 min
[3]; 250 mg/kg i.p., 15 minutes
  Motor activity (total number of revolutions per mouse): 201 revolutions per mouse
[3]; 250 mg/kg i.p., 30 minutes
  Motor activity (total number of revolutions per mouse): 406 revolutions per mouse
[3]; 250 mg/kg i.p., 45 minutes
  Motor activity (total number of revolutions per mouse): 560 revolutions per mouse
[3]; 250 mg/kg i.p., 60 minutes
  Motor activity (total number of revolutions per mouse): 727 revolutions per mouse
[3]; 250 mg/kg i.p., 75 minutes
  Motor activity (total number of revolutions per mouse): 865 revolutions per mouse
[3]; 250 mg/kg i.p., 90 minutes
  Motor activity (total number of revolutions per mouse): 916 revolutions per mouse
[3]; 500 mg/kg i.p., 15 minutes
  Motor activity (total number of revolutions per mouse): 132 revolutions per mouse
[3]; 500 mg/kg i.p., 30 minutes
  Motor activity (total number of revolutions per mouse): 289 revolutions per mouse
[3]; 500 mg/kg i.p., 45 minutes
  Motor activity (total number of revolutions per mouse): 448 revolutions per mouse
[3]; 500 mg/kg i.p., 60 minutes
  Motor activity (total number of revolutions per mouse): 615 revolutions per mouse
[3]; 500 mg/kg i.p., 75 minutes
  Motor activity (total number of revolutions per mouse): 826 revolutions per mouse
[3]; 500 mg/kg i.p., 90 minutes
  Motor activity (total number of revolutions per mouse): 1034 revolutions per mouse
[3]; 1000 mg/kg i.p., 15 minutes
  Motor activity (total number of revolutions per mouse): 76 revolutions per mouse
[3]; 1000 mg/kg i.p., 30 minutes
  Motor activity (total number of revolutions per mouse): 165 revolutions per mouse
[3]; 1000 mg/kg i.p., 45 minutes
  Motor activity (total number of revolutions per mouse): 265 revolutions per mouse
[3]; 1000 mg/kg i.p., 60 minutes
  Motor activity (total number of revolutions per mouse): 428 revolutions per mouse
[3]; 1000 mg/kg i.p., 75 minutes
  Motor activity (total number of revolutions per mouse): 639 revolutions per mouse
[3]; 1000 mg/kg i.p., 90 minutes
  Motor activity (total number of revolutions per mouse): 837 revolutions per mouse
ddY-strain male mice
  changes in behavior, nervous symptoms, autonomic nervous symptoms, and toxic symptoms: no marked difference from the control group could be found

Source: patent publication US4703061A, “Gamma-aminobutyric acid derivatives, process for production thereof, and use thereof as medicaments” (priority 1984, dated 1987)
